{"source": "patent US8188087B2", "about": "“Crystalline (3-cyano-1H-indol-7-yl)-[4-(4-fluorophenethyl) piperazin-1-yl]methanone phosphate” (Merck Patent GmbH, priority 2006, dated 2012)", "assay_type_in_all_cases": "physicochemical", "key": {"[1]": {"assay": "Solid-state (polymorphic/crystal form) stability", "source_text": "It is disadvantageous for a formulation to comprise a plurality of crystal forms of an active ingredient in that they may have different bioavailabilities and/or stability. Even slight variations in production conditions may compromise the reproducibility of the crystal form and therefore the performance of the formulated product. In addition, poorly crystalline materials are typically less desirable than highly crystalline materials because they are generally more difficult to handle during formulation processes.\nThe Anhydrate is not stable under the conditions necessary for obtaining an SSNMR spectrum."}, "[2]": {"assay": "Water retained in the crystal lattice in equilibrium with relative humidity", "details": "in equilibrium with a relative humidity of about 5% to about 95%", "source_text": "Two new crystalline forms are characterized by, inter alia, x-ray powder diffractometry, or alternatively, solid state nuclear magnetic resonance spectroscopy. One preferred embodiment of the present invention provides for a crystalline (3-cyano-1H-indol-7-yl)-[4-(4-fluorophenethyl)piperazin-1-yl]methanone phosphate hydrate Form I (Form I). Form I is characterized as a non-stoichiometric hydrate in that it retains water about 1.2% by weight of compound (up to approximately ⅓ mole of water per mole of compound) within the crystalline lattice when in equilibrium with a relative humidity of about 5% to about 95%."}, "[3]": {"assay": "Solubility in the crystallization/isolation solvent systems", "details": "all of the solvent systems tested; isolation temperatures about 5° C. to about 22° C.", "experimental": "Suitable solvents include, but are not limited to, methanol, ethanol, propan-1-ol, propan-2-ol, butan-2-ol, tetrahydrofuran, acetone, and the like. Suitable temperatures for salt formation typically range between about 50° C. to about 75° C. depending on the solvent. One preferred temperature range for salt formation is from the temperature at which the (3-cyano-1H-indol-7-yl)-[4-(4-fluorophenethyl)piperazin-1-yl]methanone is soluble up to the reflux temperature of the solvent. […] However, this may result in a slurry to slurry conversion of (3-cyano-1H-indol-7-yl)-[4-(4-fluorophenethyl)piperazin-1-yl]methanone to the salt.\nIsolation temperatures typically range between about 5° C. and about 22° C."}}, "note": "Where a name gives a salt, the structure may show the parent alone."}
{"smiles": "N#Cc1c[nH]c2c(C(=O)N3CCN(CCc4ccc(F)cc4)CC3)cccc12.O=P(O)(O)O", "note": "[Anhydrate, (3-cyano-1H-indol-7-yl)-[4-(4-fluorophenethyl)piperazin-1-yl]methanone phosphate anhydrate]", "values": [{"measurement": "crystal form stability under anhydrous conditions", "setting": "[1]; anhydrous conditions", "value": "stable"}, {"measurement": "crystal form stability under SSNMR conditions", "setting": "[1]; conditions necessary for obtaining an SSNMR spectrum", "value": "not stable"}, {"measurement": "crystal form conversion on exposure to water", "setting": "[1]; exposure to water, including atmospheric humidity", "value": "may be converted to Form I"}]}
{"smiles": "N#Cc1c[nH]c2c(C(=O)N3CCN(CCc4ccc(F)cc4)CC3)cccc12.O=P(O)(O)O", "note": "[Form I, (3-cyano-1H-indol-7-yl)-[4-(4-fluorophenethyl)piperazin-1-yl]methanone phosphate hydrate Form I]", "values": [{"measurement": "water retained within the crystalline lattice", "setting": "[2]", "value": "about 1.2 % by weight of compound"}, {"measurement": "water retained within the crystalline lattice (molar)", "setting": "[2]", "value": "⅓"}, {"measurement": "crystal form conversion on dehydration", "setting": "[1]; dehydrating the solid at 0% RH and ambient temperature", "value": "may be converted to the Anhydrate"}]}
{"smiles": "N#Cc1c[nH]c2c(C(=O)N3CCN(CCc4ccc(F)cc4)CC3)cccc12.O=P(O)(O)O", "note": "[The salt, (3-Cyano-1H-indol-7-yl)-[4-(4-fluorophenethyl)piperazin-1-yl]methanone phosphate]", "values": [{"measurement": "solubility in solvent systems tested", "setting": "[3]", "value": "low solubility"}]}
{"smiles": "N#Cc1c[nH]c2c(C(=O)N3CCN(CCc4ccc(F)cc4)CC3)cccc12", "note": "[hydrochloride salt, (3-cyano-1H-indol-7-yl)-[4-(4-fluorophenethyl)piperazin-1-yl]-methanone, reference compound]", "values": [{"measurement": "solid form stability upon compression", "setting": "[1]; upon compression during the manufacturing process", "value": "converts from a single polymorphic form into a second, poorly crystalline, metastable polymorphic form"}]}
